Converted amounts (≈) assume the structure as drawn. Read-outs that look alike come from different tables or passages of the source.
Columns and labels:
[1] = system: Acinetobacter baumannii NCTC 13420; assay: MIC, broth microdilution (CLSI); type: cell-based; details: A. baumannii NCTC 13420, 16-20 h, mode of three experiments
[2] = system: Enterobacter cloacae NCTC 13406; assay: MIC, broth microdilution (CLSI); type: cell-based; details: E. cloacae NCTC 13406, 16-20 h, mode of three experiments
[3] = system: Escherichia coli ATCC 25922; assay: MIC, broth microdilution (CLSI); type: cell-based; details: E. coli ATCC 25922, 16-20 h, mode of three experiments
[4] = system: Haemophilus influenzae ATCC 49247; assay: MIC, broth microdilution (CLSI); type: cell-based; details: H. influenzae ATCC 49247, 16-20 h, mode of three experiments
[5] = system: Klebsiella pneumoniae ATCC 700603; assay: MIC, broth microdilution (CLSI); type: cell-based; details: K. pneumoniae ATCC 700603, 16-20 h, mode of three experiments
[6] = system: Mycobacterium smegmatis ATCC 19420; assay: MIC, broth microdilution (CLSI); type: cell-based; details: M. smegmatis ATCC 19420, 16-20 h, mode of three experiments
[7] = system: Pseudomonas aeruginosa ATCC 27853; assay: MIC, broth microdilution (CLSI); type: cell-based; details: P. aeruginosa ATCC 27853, 16-20 h, mode of three experiments
[8] = system: Staphylococcus aureus ATCC 29213; assay: MIC, broth microdilution (CLSI); type: cell-based; details: S. aureus ATCC 29213, 16-20 h, mode of three experiments
[9] = system: Streptococcus pneumoniae ATCC 49619; assay: MIC, broth microdilution (CLSI); type: cell-based; details: S. pneumoniae ATCC 49619, 16-20 h, mode of three experiments
[10] = system: HepG2 ATCC HB-8065; assay: Human cell viability assay (CellTiter-Glo); type: cell-based; details: for IC50: Homo sapiens; for IC50 / IC50 HepG2: HepG2 cell viability, 24 h with compound, range 1-128 μg/mL
Method: Compounds are assessed for potential non-specific cytotoxic effects against a human hepatic cell line (HepG2 ATCC HB-8065). HepG2 cells are seeded at 20,000 cells/well in 96-well microtitre plates in minimal essential medium (MEM) supplemented with a final concentration of 10% FBS and 1 mM sodium pyruvate. After 24 h compound dilutions are prepared in Dulbecco's minimum essential media (DMEM) supplemented with final concentrations of 0.001% FBS, 0.3% bovine albumin and 0.02% HEPES and added to cells. Compounds are tested in two-fold serial dilutions over a final concentration range of 1-128 μg/mL in a final DMSO concentration of 1% vol/vol. Chlorpromazine is used as a positive control. Cells are incubated with compound at 37° C. and 5% CO2 for a further 24 h, after which time the CellTiter-Glo reagent (Promega) is added. Luminescence is measured on a BMG Omega plate reader. Data are analysed using GraphPad Prism software to determine the concentration of compound that inhibits cell viability by fifty percent (IC50).

[11] = system: Klebsiella pneumoniae NCTC 13443; assay: MIC, broth microdilution (CLSI); type: cell-based; details: NCTC13443, K. pneumoniae NCTC 13443, 16-20 h, mode of three experiments
[12] = system: Acinetobacter baumannii ATCC 19606; assay: MIC, broth microdilution (CLSI); type: cell-based; details: A. baumannii ATCC 19606, 16-20 h, mode of three experiments
[13] = system: E. coli ATCC BAA-2452; assay: MIC, broth microdilution (CLSI); type: cell-based, Escherichia coli; details: Escherichia coli, 16-20 h, mode of three experiments, read-out: MIC
[14] = system: E. coli NCTC 13476; assay: MIC, broth microdilution (CLSI); type: cell-based, Escherichia coli; details: Escherichia coli, NCTC13476, 16-20 h, mode of three experiments, read-out: MIC
[15] = system: E. coli MG1655 WT; assay: MIC, broth microdilution (CLSI); type: cell-based, Escherichia coli; details: Escherichia coli, MG1655
[16] = system: E. coli MG1655 S83L; type: cell-based, Escherichia coli; details: compared to the isogenic parent strain E. coli MG1655; S83L mutation on DNA gyrase subunit GyrA
[17] = system: E. coli MG1655 D87G; type: cell-based, Escherichia coli; details: compared to the isogenic parent strain E. coli MG1655; D87G mutation on DNA gyrase subunit GyrA
[18] = Acinetobacter baumannii, NCTC13420, read-out: MIC
[19] = Enterobacter cloacae, NCTC13406, read-out: MIC
[20] = Escherichia coli, ATCC25922, read-out: MIC
[21] = Haemophilus influenzae, ATCC49247, read-out: MIC
[22] = Klebsiella pneumoniae, ATCC700603, read-out: MIC
[23] = Pseudomonas aeruginosa, ATCC27853, read-out: MIC
[24] = Staphylococcus aureus, ATCC29213, read-out: MIC
[25] = Streptococcus pneumoniae, ATCC49619, read-out: MIC
[26] = Acinetobacter baumannii, ATCC19606, read-out: MIC

Row | SMILES | MIC [1, 18] | MIC [2, 19] | MIC [3, 20] | MIC [4, 21] | MIC [5, 22] | MIC [7, 23] | MIC [8, 24] | MIC [9, 25] | IC50 [10] | MIC [1] | MIC [2] | MIC [3] | MIC [4] | MIC [5] | MIC [6] | MIC [7] | MIC [8] | MIC [9] | IC50 HepG2 [10] | MIC [12, 26] | other results
1 | COc1ccc2ccc(=O)n(CCN3C[C@@H]4CN(c5ccc6c(n5)NC(=O)CO6)C(=O)O[C@H]4C3)c2n1 (relative stereo) [Compound 1] | < 1 µg/mL | 1 to 10 µg/mL (≈ 2.03 to 20.3 µM) | < 1 µg/mL | < 1 µg/mL | 10 to 100 µg/mL (≈ 20.3 to 203 µM) | 1 to 10 µg/mL (≈ 2.03 to 20.3 µM) | < 1 µg/mL | < 1 µg/mL | > 100 µg/mL | – | – | – | – | – | – | – | – | – | – | – | MIC ([6]; Mycolicibacterium smegmatis, ATCC19420, read-out: MIC): < 1 µg/mL
2 | N#Cc1cccc(-c2cccc(CN3C[C@@H]4CN(c5ccc6c(n5)NC(=O)CO6)C(=O)O[C@H]4C3)c2O)n1 (relative stereo) [Compound 3] | 1 to 10 µg/mL (≈ 2.01 to 20.1 µM) | > 100 µg/mL | 1 to 10 µg/mL (≈ 2.01 to 20.1 µM) | 1 to 10 µg/mL (≈ 2.01 to 20.1 µM) | > 100 µg/mL | > 100 µg/mL | < 1 µg/mL | 1 to 10 µg/mL (≈ 2.01 to 20.1 µM) | 10 to 100 µg/mL (≈ 20.1 to 201 µM) | – | – | – | – | – | – | – | – | – | – | – | MIC [11]: 1 to 10 µg/mL (≈ 2.01 to 20.1 µM); toxicity against HepG2 human hepatic cell line (in words) ([10]; summary of Table 3): acceptable level of hepatic toxicity
3 | O=C1COc2ccc(N3C[C@@H]4CN(CCn5c(=O)ccc6ccc(Oc7cccnc7)nc65)C[C@@H]4OC3=O)nc2N1 (relative stereo) [Compound 7, rel-1-{2-[(4aS*,7aR*-2-oxo-3-{3-oxo-2H,3H,4H-pyrido[3,2-b][1,4]oxazin-6-yl}-octahydropyrrolo[3,4-e][1,3]oxazin-6-yl]ethyl}-7-(pyridin-3-yloxy)-1,2-dihydro-1,8-naphthyridin-2-one] | – | – | – | – | – | – | – | – | – | B (a MIC of from 1 to 10 is assigned the letter B) | C (a MIC of from 10 to 100 is assigned the letter C) | B (a MIC of from 1 to 10 is assigned the letter B) | A (an MIC (in μg/mL) of less or equal to 1 is assigned the letter A) | C (a MIC of from 10 to 100 is assigned the letter C) | A (an MIC (in μg/mL) of less or equal to 1 is assigned the letter A) | C (a MIC of from 10 to 100 is assigned the letter C) | A (an MIC (in μg/mL) of less or equal to 1 is assigned the letter A) | A (an MIC (in μg/mL) of less or equal to 1 is assigned the letter A) | A (an IC50 of over 100 is assigned the letter A) | – | –
4 | COc1ccc2c3nocc3c(=O)n(CCN3C[C@H]4CN(c5ccc6c(n5)NC(=O)CO6)C(=O)O[C@H]4C3)c2c1 (relative stereo) [Compound 9, rel-(4aS*,7aR*-6-(2-{7-methoxy-4-oxo-4H,5H-[1,2]oxazolo[3,4-c]quinolin-5-yl}ethyl)-3-{3-oxo-2H,3H,4H-pyrido[3,2-b][1,4]oxazin-6-yl}-octahydropyrrolo[3,4-e][1,3]oxazin-2-one] | – | – | – | – | – | – | – | – | – | D (a MIC of over 100 is assigned the letter D) | D (a MIC of over 100 is assigned the letter D) | C (a MIC of from 10 to 100 is assigned the letter C) | B (a MIC of from 1 to 10 is assigned the letter B) | D (a MIC of over 100 is assigned the letter D) | A (an MIC (in μg/mL) of less or equal to 1 is assigned the letter A) | D (a MIC of over 100 is assigned the letter D) | A (an MIC (in μg/mL) of less or equal to 1 is assigned the letter A) | B (a MIC of from 1 to 10 is assigned the letter B) | C (an IC50 of from 1 to 10 is assigned the letter C) | – | MIC [12]: A (an MIC (in μg/mL) of less or equal to 1 is assigned the letter A)
5 | N#Cc1ccc2ccc(=O)n(CCN3CC4CN(c5ccc6c(n5)NC(=O)CO6)C(=O)O[C@@H]4C3)c2c1 (stereo in doubt) [Compound 12, 1-{2-[(4aR,7aS)-2-oxo-3-{3-oxo-2H,3H,4H-pyrido[3,2-b][1,4]oxazin-6-yl}-octahydropyrrolo[3,4-e][1,3]oxazin-6-yl]ethyl}-2-oxo-1,2-dihydroquinoline-7-carbonitrile] | < 1 µg/mL | 1 to 10 µg/mL (≈ 2.06 to 20.6 µM) | < 1 µg/mL | < 1 µg/mL | 10 to 100 µg/mL (≈ 20.6 to 206 µM) | 1 to 10 µg/mL (≈ 2.06 to 20.6 µM) | < 1 µg/mL | < 1 µg/mL | > 100 µg/mL | – | – | – | – | – | – | – | – | – | – | 1 to 10 µg/mL (≈ 2.06 to 20.6 µM) | MIC [13]: < 1 µg/mL; MIC [14]: 1 to 10 µg/mL (≈ 2.06 to 20.6 µM); MIC [15]: < 1 µg/mL; Fold increase in MIC against E. coli MG1655 S83L [16]: 1 fold; Fold increase in MIC against E. coli MG1655 D87G [17]: 1 fold
6 | N#Cc1ccc2ccc(=O)n(CCN3CC4CN(c5ccc6c(n5)NC(=O)CO6)C(=O)O[C@H]4C3)c2c1 (stereo in doubt) [Compound 17, 1-{2-[(4aS,7aR)-2-oxo-3-{3-oxo-2H,3H,4H-pyrido[3,2-b][1,4]oxazin-6-yl}-octahydropyrrolo[3,4-e][1,3]oxazin-6-yl]ethyl}-2-oxo-1,2-dihydroquinoline-7-carbonitrile] | < 1 µg/mL | 1 to 10 µg/mL (≈ 2.06 to 20.6 µM) | < 1 µg/mL | < 1 µg/mL | 10 to 100 µg/mL (≈ 20.6 to 206 µM) | 1 to 10 µg/mL (≈ 2.06 to 20.6 µM) | < 1 µg/mL | < 1 µg/mL | > 100 µg/mL | – | – | – | – | – | – | – | – | – | – | 1 to 10 µg/mL (≈ 2.06 to 20.6 µM) | MIC [13]: 1 to 10 µg/mL (≈ 2.06 to 20.6 µM); MIC [14]: 1 to 10 µg/mL (≈ 2.06 to 20.6 µM); MIC [15]: < 1 µg/mL; Fold increase in MIC against E. coli MG1655 S83L [16]: 0.5 fold; Fold increase in MIC against E. coli MG1655 D87G [17]: 2 fold
